18 compounds from patent publication EP0938471B1, “THE PREPARATION AND USE OF ORTHO-SULFONAMIDO ARYL HYDROXAMIC ACIDS AS MATRIX METALLOPROTEINASE AND TACE INHIBITORS” (priority 1996, dated 1998) can be followed below.

Where a name gives a salt, the structure may show the parent alone. Read-outs that look alike come from different tables or passages of the source. A value given as a limit tells only on which side of the number the result lay.

By IC50 is commonly meant the concentration at which inhibition is half-maximal. In general, inhibition refers to the percentage by which the read-out fell short of the control.

Assay [1] addresses T1, MMP-9 (Homo sapiens, UniProt P14780). As to the kind of experiment: In vivo MMP inhibition (enzyme in implanted dialysis tubing). Also on record: species or system rat (Sprague-Dawley) or mouse (CD-1). The method, then: A 2 cm piece of dialysis tubing (molecular weight cut-off 12-14,000, 10 mm flat width) containing matrix metalloproteinase enzyme (stromelysin, collagenase or gelatinase in 0.5 mL of buffer) is implanted either ip or sc (in the back) of a rat (Sprague-Dawley, 150-200g) or mouse (CD-1,25-50g) under anesthesia. Drugs are administered PO, IP, SC or IV through a canula in the jugular vein. Drugs are administered in a dose volume of 0.1 to 0.25 mL/animal. Contents of the dialysis tubing is collected and enzyme activity assayed. Enzyme reaction rates for each dialysis tube are calculated. Tubes from at least 3 different animals are used to calculate the mean± sem. Statistical significance (p<0.05) of vehicle-treated animals versus drug-treated animals is determined by analysis of variance. (Agents and Actions 21: 331, 1987).

Another assay has as its target TACE (Homo sapiens, UniProt P78536). Nature of the assay: TACE inhibition (fluorescent peptidyl substrate). The conditions noted are these: for IC50: read-out: TACE IC50; for inhibition at 1 µM: at 1µM concentration. The assay is classed as biochemical.
The next assay has as its target T2, MMP-1 (Homo sapiens, UniProt P03956).
T2 sequence (P03956 100-469): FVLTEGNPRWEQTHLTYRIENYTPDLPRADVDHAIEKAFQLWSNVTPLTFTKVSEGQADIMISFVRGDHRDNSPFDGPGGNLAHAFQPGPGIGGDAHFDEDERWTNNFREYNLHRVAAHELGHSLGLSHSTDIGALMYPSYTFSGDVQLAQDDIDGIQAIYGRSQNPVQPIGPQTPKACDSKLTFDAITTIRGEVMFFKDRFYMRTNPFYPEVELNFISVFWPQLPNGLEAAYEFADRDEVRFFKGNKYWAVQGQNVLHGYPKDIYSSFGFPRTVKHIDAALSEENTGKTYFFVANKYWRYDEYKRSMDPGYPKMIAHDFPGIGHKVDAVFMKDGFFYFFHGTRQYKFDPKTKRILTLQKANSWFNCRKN
As to the kind of experiment: MMP-1 inhibition (thiopeptide or fluorescent peptide substrate assay). The conditions noted are these: for IC50: read-out: MMP-1 IC50; for MMP-1 % inhibition: concentration given as (10), unit not given. The assay is classed as biochemical.

Another assay concerns the target MMP-13 (Homo sapiens, UniProt P45452). As to the kind of experiment: MMP-13 inhibition (thiopeptide or fluorescent peptide substrate assay). The assay is classed as biochemical. As to conditions: for MMP-13 % inhibition: concentration given as (.1), unit not given.
The target in assay [2] is T1, MMP-9. As to the kind of experiment: MMP-9 inhibition (thiopeptide or fluorescent peptide substrate assay). The assay is classed as biochemical. The conditions noted are these: for IC50: read-out: MMP-9 IC50; for inhibition at 1 µM: read-out: MMP-9 % inhibition, footnote: 1µM.
Experimental: (§1) The enzyme activity is measured by the rate of the color increase. The thiopeptide substrate is made up fresh as a 20 mM stock in 100% DMSO and the DTNB is dissolved in 100% DMSO as a 100 mM stock and stored in the dark at room temperature. Both the substrate and DTNB are diluted together to 1 mM with substrate buffer (50 mM HEPES pH 7.5, 5 mM CaCl2) before use. […] Alternatively, a fluorescent peptide substrate is used. In this assay, the peptide substrate contains a fluorescent group and a quenching group. Upon cleavage of the substrate by an MMP, the fluorescence that is generated is quantitated on the fluorescence plate reader. […] The substrate is dissolved in methanol and stored frozen in 1 mM aliquots. For the assay, substrate and enzymes are diluted in HCBC buffer to the desired concentrations. Compounds are added to the 96 well plate containing enzyme and the reaction is started by the addition of substrate. […] For either the thiopeptide or fluorescent peptide assays, the slope of the line is calculated and represents the reaction rate. […] The mean (x±sem) of the control rate is calculated and compared for statistical significance (p<0.05) with drug-treated rates using Dunnett's multiple comparison test.
Where [3] appears, read: 100 mg/kg, ip (intraperitoneal).

T1 sequence (P14780 94-707): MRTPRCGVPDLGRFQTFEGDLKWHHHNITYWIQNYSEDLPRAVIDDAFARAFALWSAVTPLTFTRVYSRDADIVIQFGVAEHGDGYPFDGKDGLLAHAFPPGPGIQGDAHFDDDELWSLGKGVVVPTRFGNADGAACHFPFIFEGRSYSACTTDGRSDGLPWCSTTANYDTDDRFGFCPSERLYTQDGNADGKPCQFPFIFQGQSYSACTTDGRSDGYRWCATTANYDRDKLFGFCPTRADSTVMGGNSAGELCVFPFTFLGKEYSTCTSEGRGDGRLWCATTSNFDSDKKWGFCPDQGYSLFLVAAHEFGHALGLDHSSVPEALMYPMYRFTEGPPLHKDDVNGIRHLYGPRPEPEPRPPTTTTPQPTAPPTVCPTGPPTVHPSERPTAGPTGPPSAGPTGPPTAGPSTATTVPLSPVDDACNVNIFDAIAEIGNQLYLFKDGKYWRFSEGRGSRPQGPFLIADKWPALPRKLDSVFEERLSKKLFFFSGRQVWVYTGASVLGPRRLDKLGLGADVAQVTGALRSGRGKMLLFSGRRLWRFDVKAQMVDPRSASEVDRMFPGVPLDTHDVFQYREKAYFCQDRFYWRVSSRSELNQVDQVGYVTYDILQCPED
Sequence of TACE (P78536 215-824): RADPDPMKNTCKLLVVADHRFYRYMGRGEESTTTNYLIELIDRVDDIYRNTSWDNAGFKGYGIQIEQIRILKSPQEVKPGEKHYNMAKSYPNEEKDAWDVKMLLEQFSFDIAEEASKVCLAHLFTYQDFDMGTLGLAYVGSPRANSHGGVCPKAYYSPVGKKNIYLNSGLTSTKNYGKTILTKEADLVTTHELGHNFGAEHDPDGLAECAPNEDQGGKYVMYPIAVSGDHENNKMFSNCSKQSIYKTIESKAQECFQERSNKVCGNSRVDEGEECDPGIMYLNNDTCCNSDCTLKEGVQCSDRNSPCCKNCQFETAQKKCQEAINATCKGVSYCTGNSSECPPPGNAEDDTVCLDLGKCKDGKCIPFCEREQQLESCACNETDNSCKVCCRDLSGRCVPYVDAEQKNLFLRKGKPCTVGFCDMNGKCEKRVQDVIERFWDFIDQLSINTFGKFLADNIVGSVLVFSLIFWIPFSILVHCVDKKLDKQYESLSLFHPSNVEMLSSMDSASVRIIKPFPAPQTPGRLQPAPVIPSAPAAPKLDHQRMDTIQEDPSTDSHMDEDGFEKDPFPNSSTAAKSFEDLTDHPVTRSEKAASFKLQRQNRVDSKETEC
Experimental for MMP-13: as §1

Consider `COc1ccc(S(=O)(=O)N(Cc2ccccc2)c2c(C)cc(Br)cc2C(=O)NO)cc1` [Example 25, 2-[Benzyl-(4-methoxy-benzenesulfonyl)-amino]-5-bromo-N-hydroxy-3-methyl-benzamide], for which, at MMP-9 [1] (setting [3]), the “in-vivo MMP % inhibition vs. MMP-9” value is 32%(100), ip. Besides, the half-maximal inhibitory concentration (IC50) on TACE was over 1 µM.

Consider `COc1ccc(S(=O)(=O)N(Cc2ccccc2)c2c(OCc3ccccc3)cccc2C(=O)NO)cc1` [Example 34, 2-[Benzyl-(4-methoxy-benzenesulfonyl)-amino]-3-benzyloxy-N-hydroxy-benzamide], for which the “in-vivo MMP % inhibition vs. MMP-9” value at MMP-9 [1] (setting [3]) is given as 31.6(100), ip %. Also, the IC50 at MMP-1 was 0.281 µM; on MMP-13 (read-out: MMP-13 IC50) it was 0.069 µM; at TACE it was over 1 µM; on MMP-9 [2], 0.028 µM.

`COc1ccc(S(=O)(=O)N(Cc2cccnc2)c2c(C)cccc2C(=O)NO)cc1` [Example 61, N-Hydroxy-2-[(4-methoxy-benzenesulfonyl)-pyridin-3-ylmethyl-amino]-3-methyl-benzamide]: the “in-vivo MMP % inhibition vs. MMP-9” value at MMP-9 [1] (20 mg/kg, po (oral)) was 46(20), po %; at MMP-9 [1] (50 mg/kg, po (oral)), 59(50), po %. Moreover, the half-maximal inhibitory concentration (IC50) on TACE was determined as 0.289 µM.

With `COc1ccc(S(=O)(=O)N(Cc2cccnc2)c2c(C)cc(Br)cc2C(=O)NO)cc1` [Example 91, 5-Bromo-N-hydroxy-2-[(4-methoxy-benzenesulfonyl)-pyridin-3-ylmethyl-amino]-3-methyl-benzamide], the “in-vivo MMP % inhibition vs. MMP-9” value at MMP-9 [1] (100 mg/kg, po (oral)) is 55(100), po %. In addition, the IC50 on MMP-13 (read-out: MMP-13 IC50) came out at 0.02 µM; on MMP-9 [2], 0.024 µM.

For the compound `CCCN(c1c(C)cc(C)cc1C(=O)NO)S(=O)(=O)c1ccc(OC)cc1` [Example 117, N-Hydroxy-2-[(4-methoxy-benzenesulfonyl)-propyl-amino]-3,5-dimethyl-benzamide], the “in-vivo MMP % inhibition vs. MMP-9” value at MMP-9 [1] (setting [3]) is on record as 28.3(100), ip %. In addition, the 50% inhibitory concentration (IC50) was determined as 0.114 µM on MMP-1, 0.01 µM on MMP-13 (read-out: MMP-13 IC50), 0.154 µM on TACE and 0.01 µM on MMP-9 [2].

With `COc1ccc(-c2ccc(-c3cc(C)c(N(Cc4cccnc4)S(=O)(=O)c4ccc(OC)cc4)c(C(=O)NO)c3)cc2)cc1` [Example 399, 4"-Methoxy-4-[(4-methoxy-benzenesulfonyl)-pyridin-3-ylmethyl-amino]-5-methyl-[1,1';4',1"]terphenyl-3-carboxylic acid hydroxyamide hydrochloride salt], the figures for the IC50 on MMP-1, on MMP-13 (read-out: MMP-13 IC50) and on MMP-9 [2] were 2.2 µM, 0.041 µM and 0.045 µM, respectively. At TACE, this compound returned an inhibition at 1 µM of 25%.

With `COc1ccc(S(=O)(=O)N(Cc2cccnc2)c2c(C)cc(-c3cccc([N+](=O)[O-])c3)cc2C(=O)NO)cc1` [Example 400, 4-[(4-Methoxy-benzenesulfonyl)-pyridin-3-ylmethyl-amino]-5-methyl-3'-nitro-biphenyl-3-carboxylic acid hydroxyamide hydrochloride salt], the concentration for half-maximal inhibition (IC50) was determined as 0.295 µM on MMP-1, 0.0049 µM at MMP-13 (read-out: MMP-13 IC50), 0.231 µM on TACE and 0.006 µM on MMP-9 [2].

In the case of `COc1ccc(-c2cc(C)c(N(Cc3cccnc3)S(=O)(=O)c3ccc(OC)cc3)c(C(=O)NO)c2)cc1` [Example 401, 4'-Methoxy-4-[(4-methoxy-benzenesulfonyl)-pyridin-3-ylmethyl-amino]-5-methyl-biphenyl-3-carboxylic acid hydroxyamide hydrochloride salt], the IC50 on MMP-1 amounted to 0.176 µM; on MMP-13 (read-out: MMP-13 IC50), 0.0028 µM; on TACE, 0.146 µM; at MMP-9 [2], 0.0014 µM.

As to `COc1ccc(S(=O)(=O)N(Cc2cccnc2)c2c(C)cc(-c3cc4ccccc4s3)cc2C(=O)NO)cc1` [Example 402, 5-Benzo[b]thiophen-2-yl-N-hydroxy-2-[(4-methoxy-benzenesulfonyl)-pyridin-3-ylmethyl-amino]-3-methyl-benzamide hydrochloride salt], the IC50 at MMP-1 was found to be 0.543 µM; on MMP-13 (read-out: MMP-13 IC50), 0.0085 µM; at TACE, 0.639 µM; on MMP-9 [2] it was 0.0026 µM.

As to `COc1ccc(S(=O)(=O)N(Cc2cccnc2)c2c(C)cc(-c3ccc(OC(F)(F)F)cc3)cc2C(=O)NO)cc1` [Example 404, 4-[(4-Methoxy-benzenesulfonyl)-pyridin-3-ylmethyl-amino]-5-methyl-4'-trifluoromethoxy-biphenyl-3-carboxylic acid hydroxyamide hydrochloride salt], the IC50 on MMP-1 came to 1.8 µM; at MMP-13 (read-out: MMP-13 IC50), 0.0095 µM; at MMP-9 [2] it was 0.0059 µM. Besides, 1 µM produced 54% inhibition against TACE.

As to `COc1ccc(S(=O)(=O)N(Cc2cccnc2)c2c(C)cc(-c3ccc4c(c3)OCO4)cc2C(=O)NO)cc1` [Example 405, 5-Benzo[1,3]dioxol-5-yl-N-hydroxy-2-[(4-methoxy-benzenesulfonyl)-pyridin-3-ylmethyl-amino]-3-methyl-benzamide hydrochloride salt], the IC50 on MMP-1 is 0.176 µM; on MMP-13 (read-out: MMP-13 IC50), 0.0058 µM; on TACE, 0.151 µM; at MMP-9 [2], 0.0041 µM.

`Cc1cccc(C(=O)NO)c1N(Cc1cccnc1)S(=O)(=O)c1ccc(-c2ccc(C(F)(F)F)cc2)cc1` [Example 410, N-Hydroxy-3-methyl-2-[pyridin-3-ylmethyl-(4'-trifluoromethyl-biphenyl-4-sulfonyl)-amino]-benzamide]: the MMP-1 % inhibition on MMP-1 was 47%(10). The MMP-13 % inhibition at MMP-13 is listed as 40%(.1). The inhibition at 1 µM on TACE came to 2%; at MMP-9 [2], 28%.

As to `COc1ccc(-c2ccc(S(=O)(=O)N(Cc3cccnc3)c3c(C)cccc3C(=O)NO)cc2)c(OC)c1` [Example 411, 2-[(2',4'-Dimethoxy-biphenyl-4-sulfonyl)-pyridin-3-ylmethyl-amino]-N-hydroxy-3-methyl-benzamide], the MMP-1 % inhibition at MMP-1 is listed as 32%(10). The inhibition at 1 µM was 44% at MMP-13 (read-out: MMP-13 % inhibition, footnote: 1µM); 9% at TACE; 39% on MMP-9 [2].

On to `Cc1cccc(C(=O)NO)c1N(Cc1cccnc1)S(=O)(=O)c1ccc(-c2cccs2)cc1` [Example 412, N-Hydroxy-3-methyl-2-[pyridin-3-ylmethyl-(4-thiophen-2-yl-benzenesulfonyl)-amino]-benzamide], for which the MMP-1 % inhibition on MMP-1 is given as 69%(10). Moreover, the MMP-13 % inhibition at MMP-13 was 42%(.1). Besides, the inhibition at 1 µM against TACE stood at 3%; at MMP-9 [2], 44%.

Consider `C#Cc1ccc(S(=O)(=O)N(Cc2cccnc2)c2c(C)cccc2C(=O)NO)cc1` [Example 413, 2-[(4-Ethynyl-benzenesulfonyl)-pyridin-3-ylmethyl-amino]-N-hydroxy-3-methyl-benzamide], for which the IC50 at MMP-1 is 0.529 µM; at MMP-13 (read-out: MMP-13 IC50) it was 0.075 µM; on MMP-9 [2], 0.055 µM. In addition, 1 µM produced 43% inhibition against TACE.

In the case of `Cc1cccc(C(=O)NO)c1N(Cc1cccnc1)S(=O)(=O)c1ccc(-c2cc3ccccc3s2)cc1` [Example 414, 2-[(4-Benzo[b]thiophen-2-yl-benzenesulfonyl)-pyridin-3-ylmethyl-amino]-N-hydroxy-3-methyl-benzamide], on MMP-1, the MMP-1 % inhibition is recorded as 29%(10). Besides, the IC50 at MMP-13 (read-out: MMP-13 IC50) is 0.038 µM. For the same compound, the inhibition at 1 µM at TACE worked out at 6%; on MMP-9 [2], 68%.

As for `Cc1cccc(C(=O)NO)c1N(Cc1cccnc1)S(=O)(=O)c1ccc(-c2ccc3c(c2)OCO3)cc1` [Example 415, 2-[(4-Benzo[1,3]dioxol-5-yl-benzenesulfonyl)-pyridin-3-ylmethyl-amino]-N-hydroxy-3-methyl-benzamide], on MMP-1, the MMP-1 % inhibition was 37%(10). Further, it took 0.026 µM to reach half-maximal inhibition against MMP-13 (IC50). The inhibition at 1 µM turned out to be 9% against TACE and 43% at MMP-9 [2].

For the compound “N-Hydroxy-2-[(4-methoxy-benzenesulfonyl)-pyridin-3-ylmethyl-amino]-5-methyl-3-thiophen-2-yl-benzamide [Example 145]”, the half-inhibitory concentration (IC50) is 0.055 µM at MMP-1, 0.003 µM on MMP-13 (read-out: MMP-13 IC50), 0.158 µM at TACE and 0.007 µM at MMP-9 [2].
